This experiment concerns MDA-MB-231 human breast cancer cells. Description: Cell proliferation assay (CellTiter-Glo, 72 hours treatment). It counts as cell-based. The settings on record: Homo sapiens; MDA-MB-231 cells, 72 hours at 37° C., CellTiter-Glo; read-out: MDA-MB-231 cell proliferation assay (IC50). As for the experimental part: Human tumor cell lines were cultured in the appropriate media (DMEM and RPMI) supplemented with penicillin G (100 U/ml), streptomycin (100 μg/ml), 10% FBS in a humidified atmosphere of 5% CO2 maintained at 37° C. Exponentially growing cells were seeded at 2,500 cells/well in 96 well plates prior to drug treatment. The following day, cells were treated with either DMSO (vehicle control) or eIF4A inhibitors at the appropriate dose for 72 hours at 37° C. Following compound treatment, cell proliferation was assessed by CellTiter-Glo assay (Promega, Madison Wis.) according to the manufacturer's protocol. Dose-response curves were fitted by non-linear regression (sigmoidal dose response model) using KaleidaGraph (Synergy Software, Reading Pa.) and IC50 values were calculated.
To this end, IC50 values of less than 100 nM are labelled as “+++”, from 100 nM to 1000 nM are labelled as “++”, and greater than 1000 nM are labelled as “+” (NA means “not available”).
On the technique in general: Cellular ATP, detected with luciferase, serves as a proxy for viable cell number.

Turning to `O[C@]12c3ncc(Cl)cc3O[C@@]1(c1ccc(Br)cc1)[C@H](c1ccccc1)C[C@@]21CCO1` (racemic) [38F, Rac-(5aR,6S,8R,8aS)-5a-(4-bromophenyl)-3-chloro-6-phenyl-6,7-dihydrospiro[cyclopenta[4,5]furo[3,2-b]pyridine-8,2′-oxetan]-8a(5aH)-ol], the IC50 is greater than 1000 nM. For `CNC[C@H]1[C@@H](O)[C@@]2(O)c3ncc(Cl)cc3O[C@@]2(c2ccc(C#N)cc2)[C@@H]1c1ccccc1` (racemic) [39F, Rac-4-((5aR,6S,7S,8R,8aS)-3-chloro-8,8a-dihydroxy-7-((methylamino)methyl)-6-phenyl-6,7,8,8a-tetrahydro-5aH-cyclopenta[4,5]furo[3,2-b]pyridin-5a-yl)benzonitrile], the IC50 lay in the range of 100 to 1000 nM. Then `CN(C)C[C@H]1[C@@H](O)[C@@]2(O)c3ncc(Cl)cc3O[C@@]2(c2ccc(C#N)cc2)[C@@H]1c1ccccc1` (racemic) [40Fb, rac-4-((5aR,6S,7S,8R,8aS)-3-chloro-7-((dimethylamino)methyl)-8,8a-dihydroxy-6-phenyl-6,7,8,8a-tetrahydro-5aH-cyclopenta[4,5]furo[3,2-b]pyridin-5a-yl)benzonitrile], with 100 to 1000 nM; and `N#Cc1ccc([C@@]23Oc4cc(Cl)cnc4[C@]2(O)[C@H](O)[C@@H](CN2CCCC2)[C@H]3c2ccccc2)cc1` (racemic) [41Fa, Rac-4-((5aR,6S,7R,8R,8aS)-3-chloro-8,8a-dihydroxy-6-phenyl-7-(pyrrolidin-1-ylmethyl)-6,7,8,8a-tetrahydro-5aH-cyclopenta[4,5]furo[3,2-b]pyridin-5a-yl)benzonitrile], with greater than 1000 nM. The value for `N#Cc1ccc([C@@]23Oc4cc(Cl)cnc4[C@]2(O)[C@H](O)[C@H](CN2CCCC2)[C@H]3c2ccccc2)cc1` (racemic) [41Fb, rac-4-((5aR,6S,7S,8R,8aS)-3-chloro-8,8a-dihydroxy-6-phenyl-7-(pyrrolidin-1-ylmethyl)-6,7,8,8a-tetrahydro-5aH-cyclopenta[4,5]furo[3,2-b]pyridin-5a-yl)benzonitrile] was 100 to 1000 nM. For `N#Cc1ccc([C@@]23Oc4cc(Cl)cnc4[C@]2(O)[C@@H](O)[C@H](CN2CCCC2)[C@H]3c2ccccc2)cc1` (racemic) [41Fc, rac-4-((5aR,6S,7S,8S,8aS)-3-chloro-8,8a-dihydroxy-6-phenyl-7-(pyrrolidin-1-ylmethyl)-6,7,8,8a-tetrahydro-5aH-cyclopenta[4,5]furo[3,2-b]pyridin-5a-yl)benzonitrile], the IC50 is greater than 1000 nM. Then `COc1ccc([C@@]23Oc4cc(OC)ccc4[C@]2(N=[N+]=[N-])[C@H](O)[C@H](C(=O)N(C)C)[C@H]3c2ccccc2)cc1` (racemic) [42F, Rac-(1R,2R,3S,3aR,8bS)-8b-azido-1-hydroxy-6-methoxy-3a-(4-methoxyphenyl)-N,N-dimethyl-3-phenyl-2,3-dihydro-1H-cyclopenta[b]benzofuran-2-carboxamide], with 100 to 1000 nM; and `COC(=O)[C@H]1[C@@H](O)[C@@]2(F)c3ncc(Cl)cc3O[C@@]2(c2ccc(Br)cc2)[C@@H]1c1ccccc1` (racemic) [43F, Rac-methyl (5aR,6S,7R,8R,8aS)-5a-(4-bromophenyl)-3-chloro-8a-fluoro-8-hydroxy-6-phenyl-5a,7,8,8a-tetrahydro-6H-cyclopenta[4,5]furo[3,2-b]pyridine-7-carboxylate], with greater than 1000 nM; and `COc1ccc([C@@]23Oc4cc(OC)ccc4[C@]2(N)[C@H](O)[C@H](C(=O)N(C)C)[C@H]3c2ccccc2)cc1` (racemic) [44F, Rac-(1R,2R,3S,3aR,8bS)-8b-amino-1-hydroxy-6-methoxy-3a-(4-methoxyphenyl)-N,N-dimethyl-3-phenyl-2,3,3a,8b-tetrahydro-1H-cyclopenta[b]benzofuran-2-carboxamide], with greater than 1000 nM.

As for `COc1ccc([C@@]23Oc4cc(OC)ccc4[C@]2(NC(C)=O)[C@H](O)[C@H](C(=O)N(C)C)[C@H]3c2ccccc2)cc1` (racemic) [45F, Rac-(1R,2R,3S,3aR,8bS)-8b-acetamido-1-hydroxy-6-methoxy-3a-(4-methoxyphenyl)-N,N-dimethyl-3-phenyl-2,3,3a,8b-tetrahydro-1H-cyclopenta[b]benzofuran-2-carboxamide], the IC50 is greater than 1000 nM. The value for `COC(=O)C(C[C@H]1C(=O)[C@@]2(O)c3ncc(Cl)cc3O[C@@]2(c2ccc(Br)cc2)[C@@H]1c1ccccc1)C(=O)OC` (racemic) [46F, Rac-dimethyl 2-[[(5aR,6S,7R,8aR)-5a-(4-bromophenyl)-3-chloro-8a-hydroxy-8-oxo-6-phenyl-6,7-dihydrocyclopenta[4,5]furo[1,2-b]pyridin-7-yl]methyl]propanedioate] was greater than 1000 nM.

Consider `N#C[C@@H]1C[C@@H](c2ccccc2)[C@]2(c3ccc(Br)cc3)Oc3cc(Cl)cnc3[C@]12O` (racemic) [47F, Rac-(5aR,6S,8S,8aR)-5a-(4-bromophenyl)-3-chloro-8a-hydroxy-6-phenyl-5a,7,8,8a-tetrahydro-6H-cyclopenta[4,5]furo[3,2-b]pyridine-8-carbonitrile], for which the IC50 is greater than 1000 nM. As for `C#CC1C[C@@H](c2ccccc2)[C@]2(c3ccc(Br)cc3)Oc3cc(Cl)cnc3[C@]12O` (mixture of isomers) [48F, Rac-(5aR,6S,8aR)-5a-(4-bromophenyl)-3-chloro-8-ethynyl-6-phenyl-5a,6,7,8-tetrahydro-8aH-cyclopenta[4,5]furo[3,2-b]pyridin-8a-ol], the IC50 was greater than 1000 nM. Then `COC(=O)[C@@H]1[C@@H](c2ccccc2)[C@]2(c3ccc(Br)cc3)Oc3cc(Cl)cnc3[C@]2(O)[C@H]1C#N` (racemic) [49F, Rac-methyl (5aR,6S,7R,8R,8aR)-5a-(4-bromophenyl)-3-chloro-8-cyano-8a-hydroxy-6-phenyl-5a,7,8,8a-tetrahydro-6H-cyclopenta[4,5]furo[3,2-b]pyridine-7-carboxylate], with 100 to 1000 nM; and `COC(=O)[C@@H]1[C@@H](c2ccccc2)[C@]2(c3ccc(C#N)cc3)Oc3cc(Cl)cnc3[C@]2(O)[C@H]1C#N` (racemic) [50F, Rac-methyl (5aR,6S,7R,8R,8aR)-3-chloro-8-cyano-5a-(4-cyanophenyl)-8a-hydroxy-6-phenyl-5a,7,8,8a-tetrahydro-6H-cyclopenta[4,5]furo[3,2-b]pyridine-7-carboxylate], with 100 to 1000 nM; and `CN(C)C(=O)[C@@H]1[C@@H](c2ccccc2)[C@]2(c3ccc(C#N)cc3)Oc3cc(Cl)cnc3[C@]2(O)[C@H]1C#N` (racemic) [51F, Rac-(5aR,6S,7R,8R,8aR)-3-chloro-8-cyano-5a-(4-cyanophenyl)-8a-hydroxy-N,N-dimethyl-6-phenyl-5a,7,8,8a-tetrahydro-6H-cyclopenta[4,5]furo[3,2-b]pyridine-7-carboxamide], with 100 to 1000 nM.

For `N#Cc1ccc([C@@]23Oc4cc(Cl)cnc4[C@]2(O)[C@@H](C#N)[C@H](C(N)=O)[C@H]3c2ccccc2)cc1` (racemic) [52F, Rac-(5aR,6S,7R,8R,8aR)-3-chloro-8-cyano-5a-(4-cyanophenyl)-8a-hydroxy-6-phenyl-5a,7,8,8a-tetrahydro-6H-cyclopenta[4,5]furo[3,2-b]pyridine-7-carboxamide], the IC50 was 100 to 1000 nM. For `O=C1N[C@H]2[C@@H](O1)[C@@]1(O)c3ncc(Cl)cc3O[C@@]1(c1ccc(Br)cc1)[C@@H]2c1ccccc1` (racemic) [53F, Rac-(3aR,3bS,8aR,9R,9aR)-8a-(4-bromophenyl)-6-chloro-3b-hydroxy-9-phenyl-1,3a,3b,8a,9,9a-hexahydro-2H-oxazolo[4″,5″:4′,5′]cyclopenta[1′,2′:4,5]furo[3,2-b]pyridin-2-one], the IC50 was less than 100 nM.

For the compound `N#Cc1ccc([C@@]23Oc4cc(Cl)cnc4[C@]2(O)[C@@H]2OC(=O)N[C@@H]2[C@H]3c2ccccc2)cc1` (racemic) [54F, Rac-4-((3aR,3bS,8aR,9R,9aR)-6-chloro-3b-hydroxy-2-oxo-9-phenyl-1,2,3a,3b,9,9a-hexahydro-8aH-oxazolo[4″,5″:4′,5′]cyclopenta[1′,2′:4,5]furo[3,2-b]pyridin-8a-yl)benzonitrile], the IC50 is 100 to 1000 nM.

Turning to `OC[C@H]1[C@@H](O)[C@@]2(O)c3ncc(Cl)cc3O[C@@]2(c2ccc(Br)cc2)[C@@H]1c1ccccc1` (racemic) [55F, Rac-(5aR,6S,7S,8R,8aS)-5a-(4-bromophenyl)-3-chloro-7-(hydroxymethyl)-6-phenyl-5a,6,7,8-tetrahydro-8aH-cyclopenta[4,5]furo[3,2-b]pyridine-8,8a-diol], the IC50 fell in the range of 100 to 1000 nM. The value for `N#Cc1ccc([C@@]23Oc4cc(Cl)cnc4[C@]2(O)[C@H](O)[C@H](CO)[C@H]3c2ccccc2)cc1` (racemic) [56F, Rac-4-((5aR,6S,7S,8R,8aS)-3-chloro-8,8a-dihydroxy-7-(hydroxymethyl)-6-phenyl-6,7,8,8a-tetrahydro-5aH-cyclopenta[4,5]furo[3,2-b]pyridin-5a-yl)benzonitrile] was greater than 1000 nM; that for `C[C@H]1[C@@H](O)[C@@]2(O)c3ncc(Cl)cc3O[C@@]2(c2ccc(Br)cc2)[C@@H]1c1ccccc1` (racemic) [57F, Rac-(5aR,6S,7R,8R,8aS)-5a-(4-bromophenyl)-3-chloro-7-methyl-6-phenyl-5a,6,7,8-tetrahydro-8aH-cyclopenta[4,5]furo[3,2-b]pyridine-8,8a-diol] was greater than 1000 nM; that for `COC(=O)C1(F)[C@@H](O)[C@@]2(O)c3ncc(Cl)cc3O[C@@]2(c2ccc(Br)cc2)[C@@H]1c1ccccc1` (mixture of isomers) [58F, Rac-methyl (5aR,6S,8S,8aS)-5a-(4-bromophenyl)-3-chloro-7-fluoro-8,8a-dihydroxy-6-phenyl-5a,7,8,8a-tetrahydro-6H-cyclopenta[4,5]furo[3,2-b]pyridine-7-carboxylate] was greater than 1000 nM.

The values above are taken from US10577378B2, “EIF4A-inhibiting compounds and methods related thereto” (eFFECTOR Therapeutics, Inc., priority 2015, dated 2020).
